Results taken from ChEMBL document CHEMBL1208782, “Synthesis and pharmacological validation of a novel series of non-steroidal FXR agonists” (Bioorg Med Chem Lett, 2010).

What was measured:
Type in all cases: functional, cell-based
[1] = biological target: T1, Peroxisome proliferator-activated receptor delta (Homo sapiens, UniProt Q03181); assay: Agonist activity at PPAR-beta/delta-LBD expressed in HEK293 cells assessed as Gal4-DBD interaction by cellular mammalian one hybrid assay
T1 sequence (Q03181 whole entry): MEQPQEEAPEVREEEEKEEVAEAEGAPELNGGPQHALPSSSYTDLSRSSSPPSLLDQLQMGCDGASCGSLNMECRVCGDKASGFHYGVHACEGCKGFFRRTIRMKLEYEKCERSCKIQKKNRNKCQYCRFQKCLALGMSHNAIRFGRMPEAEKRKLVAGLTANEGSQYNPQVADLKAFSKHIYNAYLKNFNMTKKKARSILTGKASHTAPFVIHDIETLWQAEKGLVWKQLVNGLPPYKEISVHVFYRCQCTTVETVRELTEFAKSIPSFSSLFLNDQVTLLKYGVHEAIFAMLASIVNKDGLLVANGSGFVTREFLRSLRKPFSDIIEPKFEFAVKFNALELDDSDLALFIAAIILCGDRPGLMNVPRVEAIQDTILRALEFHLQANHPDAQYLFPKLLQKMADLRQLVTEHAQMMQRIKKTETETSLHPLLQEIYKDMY

[2] = biological target: T2, Oxysterols receptor LXR-alpha (Homo sapiens, UniProt Q13133); assay: Agonist activity at LXRalpha-LBD expressed in HEK293 cells assessed as Gal4-DBD interaction by cellular mammalian one hybrid assay
T2 sequence (Q13133 whole entry): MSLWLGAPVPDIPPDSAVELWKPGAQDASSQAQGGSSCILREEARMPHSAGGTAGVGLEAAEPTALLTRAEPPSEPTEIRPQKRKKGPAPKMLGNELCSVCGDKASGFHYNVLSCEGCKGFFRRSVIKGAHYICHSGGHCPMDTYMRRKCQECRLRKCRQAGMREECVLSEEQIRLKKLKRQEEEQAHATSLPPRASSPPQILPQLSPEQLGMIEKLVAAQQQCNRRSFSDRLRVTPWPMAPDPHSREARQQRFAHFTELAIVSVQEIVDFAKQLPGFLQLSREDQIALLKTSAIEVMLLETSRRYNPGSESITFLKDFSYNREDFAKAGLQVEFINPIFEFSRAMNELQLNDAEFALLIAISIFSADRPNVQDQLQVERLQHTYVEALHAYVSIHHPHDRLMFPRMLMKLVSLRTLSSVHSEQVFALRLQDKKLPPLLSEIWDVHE

[3] = biological target: T3, Retinoic acid receptor gamma (Homo sapiens, UniProt P13631); assay: Agonist activity at RARgamma-LBD expressed in HEK293 cells assessed as Gal4-DBD interaction by cellular mammalian one hybrid assay
T3 sequence (P13631 whole entry): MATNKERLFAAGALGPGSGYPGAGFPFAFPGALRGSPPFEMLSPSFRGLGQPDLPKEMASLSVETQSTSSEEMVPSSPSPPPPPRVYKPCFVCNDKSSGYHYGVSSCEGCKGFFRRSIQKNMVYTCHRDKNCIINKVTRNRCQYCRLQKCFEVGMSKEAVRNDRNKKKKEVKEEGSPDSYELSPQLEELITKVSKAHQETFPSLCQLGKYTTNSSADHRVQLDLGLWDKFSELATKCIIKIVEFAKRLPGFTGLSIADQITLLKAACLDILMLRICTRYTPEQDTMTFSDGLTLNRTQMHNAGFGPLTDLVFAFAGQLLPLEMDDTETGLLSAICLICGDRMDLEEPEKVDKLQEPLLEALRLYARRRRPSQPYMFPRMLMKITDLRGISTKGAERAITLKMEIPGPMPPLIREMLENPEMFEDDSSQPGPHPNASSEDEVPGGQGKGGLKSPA

[4] = biological target: T4, Glucocorticoid receptor (Homo sapiens) (UniProt P04150); assay: Agonist activity at GR-LBD expressed in HEK293 cells assessed as Gal4-DBD interaction by cellular mammalian one hybrid assay relative to glucocorticoid
T4 sequence (whole entry): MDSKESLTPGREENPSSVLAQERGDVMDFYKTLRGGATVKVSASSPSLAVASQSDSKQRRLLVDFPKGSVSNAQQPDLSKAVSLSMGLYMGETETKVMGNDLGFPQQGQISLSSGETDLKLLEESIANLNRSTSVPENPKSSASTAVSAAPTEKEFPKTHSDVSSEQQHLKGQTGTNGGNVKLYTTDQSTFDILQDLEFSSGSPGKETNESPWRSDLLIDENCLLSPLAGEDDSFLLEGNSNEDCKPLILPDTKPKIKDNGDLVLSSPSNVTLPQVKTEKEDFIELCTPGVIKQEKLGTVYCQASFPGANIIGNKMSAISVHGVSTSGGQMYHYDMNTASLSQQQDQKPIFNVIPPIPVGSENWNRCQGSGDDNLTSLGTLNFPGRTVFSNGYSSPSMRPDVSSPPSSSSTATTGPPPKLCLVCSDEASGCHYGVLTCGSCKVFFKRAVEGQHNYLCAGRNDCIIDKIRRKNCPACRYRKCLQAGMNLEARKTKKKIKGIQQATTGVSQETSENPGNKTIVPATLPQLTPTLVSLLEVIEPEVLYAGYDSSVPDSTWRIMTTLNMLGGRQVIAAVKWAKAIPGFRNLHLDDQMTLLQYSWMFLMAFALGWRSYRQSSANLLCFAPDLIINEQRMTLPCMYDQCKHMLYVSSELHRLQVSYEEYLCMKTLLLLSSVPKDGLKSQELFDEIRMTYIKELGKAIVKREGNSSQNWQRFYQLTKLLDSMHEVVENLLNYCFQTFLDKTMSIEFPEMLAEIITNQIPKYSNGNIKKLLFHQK

[5] = biological target: T5, Retinoic acid receptor beta (Homo sapiens) (UniProt P10826); assay: Agonist activity at RARbeta-LBD expressed in HEK293 cells assessed as Gal4-DBD interaction by cellular mammalian one hybrid assay relative to retinoic acid
T5 sequence (whole entry): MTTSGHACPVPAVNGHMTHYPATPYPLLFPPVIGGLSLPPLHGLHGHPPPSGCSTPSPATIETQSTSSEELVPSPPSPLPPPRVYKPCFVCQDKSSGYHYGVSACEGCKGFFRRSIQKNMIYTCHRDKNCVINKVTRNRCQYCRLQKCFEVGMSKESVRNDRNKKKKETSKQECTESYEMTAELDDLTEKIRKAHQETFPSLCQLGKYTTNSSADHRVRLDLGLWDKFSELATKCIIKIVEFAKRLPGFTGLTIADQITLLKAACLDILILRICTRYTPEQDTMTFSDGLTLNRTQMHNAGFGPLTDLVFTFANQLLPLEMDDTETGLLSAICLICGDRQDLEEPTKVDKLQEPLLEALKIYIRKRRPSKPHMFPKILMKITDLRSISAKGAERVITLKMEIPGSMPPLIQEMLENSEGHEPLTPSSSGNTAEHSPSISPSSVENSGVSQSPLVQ

CN(Cc1cccc(C(=O)O)c1)c1ccc(OCc2c(-c3c(Cl)cccc3Cl)noc2C2CC2)nc1C(F)(F)F
EC50 [1]: > 10 µM | EC50 [2]: > 10 µM | EC50 [3]: > 10 µM | Efficacy [4]: 0% | Efficacy [5]: 0%

CN(Cc1ccc(C(=O)O)cc1)c1ccc(OCc2c(-c3c(Cl)cccc3Cl)noc2C2CC2)nc1C(F)(F)F
EC50 [1]: > 10 µM | EC50 [2]: > 10 µM | EC50 [3]: > 10 µM | Efficacy [4]: 0% | Efficacy [5]: 0%

CC(C)c1onc(-c2c(Cl)cccc2Cl)c1COc1ccc(N(C)Cc2ccc(C(=O)O)cc2)c(C(F)(F)F)n1
EC50 [1]: > 10 µM | EC50 [2]: > 10 µM | EC50 [3]: > 10 µM | Efficacy [4]: 0% | Efficacy [5]: 0%
